# Data: patent publication US8802597B2, “Herbicidal pyrimidines” (E I du Pont de Nemours and Company, priority 2003, dated 2014)
# Where two headings read alike, the source gives them in different places.
# Columns and labels:
# Type in all cases: in vivo
# [1] = tested on: barnyardgrass (Echinochloa crus-galli); assay: Test B flooded paddy test; settings: Echinochloa crus-galli, Flood, 1000 g ai/ha; scale 0 (no effect) to 100 (complete control); read-out: Plant response rating, Barnyardgrass
# How it was run: (§1)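 Visual injury scoring (0 = no effect, 100 = complete control) versus controls made 13 to 15 days after treatment in the greenhouse. Test species were grown in flooded paddy to the 2-leaf stage: rice, barnyardgrass, umbrella sedge, duck salad.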
# [2] = tested on: rice (Oryza sativa); assay: Test B flooded paddy test; settings: Oryza sativa, Flood, 1000 g ai/ha; scale 0 to 100; read-out: Plant response rating, Rice
# How it was run: as §1
# [3] = tested on: duck salad (Heteranthera limosa); assay: Test B flooded paddy test; settings: Heteranthera limosa, Flood, 1000 g ai/ha; scale 0 to 100; read-out: Plant response rating, Ducksalad
# How it was run: as §1
# [4] = tested on: umbrella sedge (Cyperus difformis); assay: Test B flooded paddy test; settings: Cyperus difformis, Flood, 1000 g ai/ha; scale 0 to 100; read-out: Plant response rating, Sedge, Umbrella
# How it was run: as §1
# [5] = tested on: wild oat (Avena fatua); assay: Test B postemergence; settings: Avena fatua, post-emergence
# How it was run: (§2)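 Visual injury scored 0 (no effect) to 100 (complete control) versus untreated controls after 13 to 15 days in greenhouse. Treatments were pre- or postemergence sprays of surfactant-containing solvent formulations; postemergence plants at 1- to 4-leaf stage, 2 to 18 cm.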
# [6] = tested on: blackgrass (Alopecurus myosuroides); assay: Test B postemergence; settings: Alopecurus myosuroides, post-emergence
# How it was run: as §2
# [7] = tested on: wheat (Triticum aestivum); assay: Test B pre/postemergence; settings: Triticum aestivum; for plant injury at 62 g/ha: 62 g ai/ha; for plant injury at 250 g/ha: 250 g ai/ha
# How it was run: as §2
# [8] = tested on: lambsquarters (Chenopodium album); assay: Test B pre/postemergence; settings: Chenopodium album; for pest or weed control at 62 g/ha: 62 g ai/ha; for pest or weed control at 250 g/ha: 250 g ai/ha
# How it was run: as §2
# [9] = tested on: corn (Zea mays); assay: Test B pre/postemergence; settings: Zea mays; for Corn plant response rating (crop injury, 0 = no effect, 100 = complete kill) at 250 g/ha: 250 g ai/ha
# How it was run: as §2
# [10] = tested on: giant foxtail (Setaria faberii); assay: Test B pre/postemergence; settings: Setaria faberi; for pest or weed control at 62 g/ha: 62 g ai/ha; for pest or weed control at 250 g/ha: 250 g ai/ha
# How it was run: as §2
# [11] = tested on: velvetleaf (Abutilon theophrasti); assay: Test B pre/postemergence; settings: Abutilon theophrasti; for pest or weed control at 62 g/ha: 62 g ai/ha; for pest or weed control at 250 g/ha: 250 g ai/ha
# How it was run: as §2
# [12] = tested on: barnyardgrass (Echinochloa crus-galli); assay: Test B pre/postemergence; settings: Echinochloa crus-galli; for pest or weed control at 62 g/ha: 62 g ai/ha; for pest or weed control at 250 g/ha: 250 g ai/ha
# How it was run: as §2
# [13] = tested on: Surinam grass (Brachiaria decumbens); assay: Test B pre/postemergence; settings: Urochloa decumbens; for pest or weed control at 62 g/ha: 62 g ai/ha; for pest or weed control at 250 g/ha: 250 g ai/ha
# How it was run: as §2
# [14] = tested on: cocklebur (Xanthium strumarium); assay: Test B pre/postemergence; settings: Xanthium strumarium; for pest or weed control at 62 g/ha: 62 g ai/ha; for pest or weed control at 250 g/ha: 250 g ai/ha
# How it was run: as §2
# [15] = tested on: morningglory (Ipomoea coccinea); assay: Test B pre/postemergence; settings: Ipomoea; for pest or weed control at 62 g/ha: 62 g ai/ha; for pest or weed control at 250 g/ha: 250 g ai/ha
# How it was run: as §2
# [16] = tested on: crabgrass (Digitaria sanguinalis); assay: Test B pre/postemergence; settings: Digitaria sanguinalis; for pest or weed control at 62 g/ha: 62 g ai/ha; for pest or weed control at 250 g/ha: 250 g ai/ha
# How it was run: as §2
# [17] = tested on: pigweed (Amaranthus retroflexus); assay: Test B pre/postemergence; settings: Amaranthus retroflexus; for pest or weed control at 62 g/ha: 62 g ai/ha; for pest or weed control at 250 g/ha: 250 g ai/ha
# How it was run: as §2
# [18] = pre-emergence, Preemergence, scale 0 to 100 (0 no effect, 100 complete control), read-out: Plant response rating, Wheat
# [19] = pre-emergence, Preemergence, scale 0 to 100 (0 no effect, 100 complete control), read-out: Plant response rating, Barnyardgrass
compound,measurement,setting,value
"CCOC(=O)c1nc(C2CC2)nc(N)c1Cl [Compound 4, ethyl 6-amino-5-chloro-2-cyclopropyl-4-pyrimidinecarboxylate]",pest or weed control at 1000 g/ha,[1],90%
same,plant injury at 1000 g/ha,[2],80%
same,pest or weed control at 1000 g/ha,[3],100%
same,pest or weed control at 1000 g/ha,[4],80%
same,pest or weed control at 62 g/ha,"[5]; 62 g ai/ha, scale 0 to 100 (0 no effect, 100 complete control), read-out: Oat, Wild plant response rating",50%
same,pest or weed control at 250 g/ha,"[5]; 250 g ai/ha, scale 0 to 100, read-out: Plant response rating, Oat, Wild",80%
same,pest or weed control at 62 g/ha,"[6]; 62 g ai/ha, scale 0 to 100 (0 no effect, 100 complete control), read-out: Blackgrass plant response rating",70%
same,pest or weed control at 250 g/ha,"[6]; 250 g ai/ha, scale 0 to 100, read-out: Plant response rating, Blackgrass",90%
same,plant injury at 62 g/ha,"[7]; post-emergence, Postemergence, scale 0 to 100 (0 no effect, 100 complete control), read-out: Wheat plant response rating",40%
same,plant injury at 250 g/ha,"[7]; post-emergence, Postemergence, scale 0 to 100, read-out: Plant response rating, Wheat",80%
same,plant injury at 62 g/ha,[7]; [18],50%
same,plant injury at 250 g/ha,[7]; [18],70%
same,pest or weed control at 62 g/ha,"[8]; post-emergence, Postemergence, scale 0 to 100 (0 no effect, 100 complete control), read-out: Lambsquarters plant response rating",100%
same,pest or weed control at 250 g/ha,"[8]; post-emergence, Postemergence, scale 0 to 100, read-out: Plant response rating, Lambsquarters",100%
same,pest or weed control at 62 g/ha,"[8]; pre-emergence, Preemergence, scale 0 to 100, 0 no effect, 100 complete control, read-out: Plant response rating, Lambsquarters",90%
same,pest or weed control at 250 g/ha,"[8]; pre-emergence, Preemergence, scale 0 to 100 (0 no effect, 100 complete control), read-out: Plant response rating, Lambsquarters",100%
same,plant injury at 62 g/ha,"[9]; post-emergence, Postemergence, 62 g ai/ha, scale 0 to 100 (0 no effect, 100 complete control), read-out: Corn plant response rating",50%
same,"Corn plant response rating (crop injury, 0 = no effect, 100 = complete kill) at 250 g/ha","[9]; post-emergence, Postemergence, scale 0 to 100",90%
same,"Corn plant response rating (crop injury, 0 = no effect, 100 = complete kill) at 62 g/ha","[9]; pre-emergence, Preemergence, 62 g ai/ha, scale 0 to 100, 0 no effect, 100 complete control",0%
same,"Corn plant response rating (crop injury, 0 = no effect, 100 = complete kill) at 250 g/ha","[9]; pre-emergence, Preemergence, scale 0 to 100 (0 no effect, 100 complete control)",80%
same,pest or weed control at 62 g/ha,"[10]; post-emergence, Postemergence, scale 0 to 100 (0 no effect, 100 complete control), read-out: Foxtail, Giant plant response rating",80%
same,pest or weed control at 250 g/ha,"[10]; post-emergence, Postemergence, scale 0 to 100, read-out: Plant response rating, Foxtail, Giant",90%
same,pest or weed control at 250 g/ha,"[10]; pre-emergence, Preemergence, scale 0 to 100 (0 no effect, 100 complete control), read-out: Plant response rating, Foxtail, Giant",80%
same,pest or weed control at 62 g/ha,"[10]; pre-emergence, Preemergence, scale 0 to 100, 0 no effect, 100 complete control, read-out: Plant response rating, Foxtail, Giant",10%
same,pest or weed control at 62 g/ha,"[11]; post-emergence, Postemergence, scale 0 to 100 (0 no effect, 100 complete control), read-out: Velvetleaf plant response rating",70%
same,pest or weed control at 250 g/ha,"[11]; post-emergence, Postemergence, scale 0 to 100, read-out: Plant response rating, Velvetleaf",100%
same,pest or weed control at 62 g/ha,"[11]; pre-emergence, Preemergence, scale 0 to 100, 0 no effect, 100 complete control, read-out: Plant response rating, Velvetleaf",80%
same,pest or weed control at 250 g/ha,"[11]; pre-emergence, Preemergence, scale 0 to 100 (0 no effect, 100 complete control), read-out: Plant response rating, Velvetleaf",90%
same,pest or weed control at 62 g/ha,"[12]; post-emergence, Postemergence, scale 0 to 100 (0 no effect, 100 complete control), read-out: Barnyardgrass plant response rating",70%
same,pest or weed control at 250 g/ha,"[12]; post-emergence, Postemergence, scale 0 to 100, read-out: Plant response rating, Barnyardgrass",90%
same,pest or weed control at 62 g/ha,[12]; [19],30%
same,pest or weed control at 250 g/ha,[12]; [19],90%
same,pest or weed control at 62 g/ha,"[13]; post-emergence, Postemergence, scale 0 to 100 (0 no effect, 100 complete control), read-out: Surinam Grass plant response rating",90%
same,pest or weed control at 250 g/ha,"[13]; post-emergence, Postemergence, scale 0 to 100, read-out: Plant response rating, Surinam Grass",90%
same,pest or weed control at 250 g/ha,"[13]; pre-emergence, Preemergence, scale 0 to 100 (0 no effect, 100 complete control), read-out: Plant response rating, Surinam Grass",90%
same,pest or weed control at 62 g/ha,"[13]; pre-emergence, Preemergence, scale 0 to 100, 0 no effect, 100 complete control, read-out: Plant response rating, Surinam Grass",40%
same,pest or weed control at 62 g/ha,"[14]; post-emergence, Postemergence, scale 0 to 100 (0 no effect, 100 complete control), read-out: Cocklebur plant response rating",90%
same,pest or weed control at 250 g/ha,"[14]; post-emergence, Postemergence, scale 0 to 100, read-out: Plant response rating, Cocklebur",100%
same,pest or weed control at 62 g/ha,"[14]; pre-emergence, Preemergence, scale 0 to 100, 0 no effect, 100 complete control, read-out: Plant response rating, Cocklebur",80%
same,pest or weed control at 250 g/ha,"[14]; pre-emergence, Preemergence, scale 0 to 100 (0 no effect, 100 complete control), read-out: Plant response rating, Cocklebur",100%
same,pest or weed control at 62 g/ha,"[15]; post-emergence, Postemergence, scale 0 to 100 (0 no effect, 100 complete control), read-out: Morningglory plant response rating",90%
same,pest or weed control at 250 g/ha,"[15]; post-emergence, Postemergence, scale 0 to 100, read-out: Plant response rating, Morningglory",100%
same,pest or weed control at 62 g/ha,"[15]; pre-emergence, Preemergence, scale 0 to 100, 0 no effect, 100 complete control, read-out: Plant response rating, Morningglory",60%
same,pest or weed control at 250 g/ha,"[15]; pre-emergence, Preemergence, scale 0 to 100 (0 no effect, 100 complete control), read-out: Plant response rating, Morningglory",100%
same,pest or weed control at 62 g/ha,"[16]; post-emergence, Postemergence, scale 0 to 100 (0 no effect, 100 complete control), read-out: Crabgrass plant response rating",80%
same,pest or weed control at 250 g/ha,"[16]; post-emergence, Postemergence, scale 0 to 100, read-out: Plant response rating, Crabgrass",90%
same,pest or weed control at 62 g/ha,"[16]; pre-emergence, Preemergence, scale 0 to 100, 0 no effect, 100 complete control, read-out: Plant response rating, Crabgrass",70%
same,pest or weed control at 250 g/ha,"[16]; pre-emergence, Preemergence, scale 0 to 100 (0 no effect, 100 complete control), read-out: Plant response rating, Crabgrass",90%
same,pest or weed control at 62 g/ha,"[17]; post-emergence, Postemergence, scale 0 to 100 (0 no effect, 100 complete control), read-out: Pigweed plant response rating",100%
same,pest or weed control at 250 g/ha,"[17]; post-emergence, Postemergence, scale 0 to 100, read-out: Plant response rating, Pigweed",100%
same,pest or weed control at 62 g/ha,"[17]; pre-emergence, Preemergence, scale 0 to 100, 0 no effect, 100 complete control, read-out: Plant response rating, Pigweed",90%
same,pest or weed control at 250 g/ha,"[17]; pre-emergence, Preemergence, scale 0 to 100 (0 no effect, 100 complete control), read-out: Plant response rating, Pigweed",100%
